Results taken from patent US9493444B2 (Merck Patent GmbH, priority 2012, dated 2016).

These molecules were tested on Wnt pathway (TCF-dependent transcription in HEK293 luciferase reporter cell line with ER-DSH construct) (assay: Cellular assay for Wnt pathway activity (luciferase reporter)). Settings: Homo sapiens; Wnt pathway inhibition, HEK293 luciferase reporter cells (ER-DSH, TCF promoter), 24 hours incubation, estrogen-induced.
Type: cell-based
Procedure, shortened: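 Compounds (30 μM down to 1 nM) were incubated 24 h on cells induced for TCF-dependent transcription with estrogen. Luciferase activity was read by luminescence, normalized to untreated vehicle control, and fitted for IC50.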

Compound | IC50 [nM]
CC(=O)Nc1ccc(-c2ccc(Oc3cncc(NCCN(C)C(C)=O)n3)cc2)cn1 [Compound 260, N-(2-{6-[4-(6-Acetylamino-pyridin-3-yl)-phenoxy]-pyrazin-2-ylamino}-ethyl)-N-methyl-acetamide] | 200 to 1000
CC(=O)N(C)CCN(C)c1cncc(Oc2ccc(-c3nccs3)cc2)n1 [Compound 158, N-Methyl-N-(2-{methyl-[6-(4-thiazol-2-yl-phenoxy)-pyrazin-2-yl]-amino}-ethyl)-acetamide] | < 200
O=C1NCCN1CCNc1cncc(Oc2ccc(F)cc2)n1 [Compound 278, 1-{2-[6-(4-Fluoro-phenoxy)-pyrazin-2-ylamino]-ethyl}-imidazolidin-2-one] | 200 to 1000
CC(=O)N(C)CCCc1cncc(Oc2ccc(-c3ccc([N+](=O)[O-])cn3)cc2F)n1 [Compound 274, N-(3-{6-[2-Fluoro-4-(5-nitro-pyridin-2-yl)-phenoxy]-pyrazin-2-yl}-propyl)-N-methyl-acetamide] | 1000 to 10000
CCN(CC1CCCN(c2cncc(Oc3ccc(OC)cc3)n2)C1)C(C)=O (stereo not drawn) [Compound 73, N-Ethyl-N-{1-[6-(4-methoxy-phenoxy)-pyrazin-2-yl]-piperidin-3-ylmethyl}-acetamide] | 1000 to 10000
CCOC(=O)c1cccc(Oc2cncc(N(C)CCN(C)C(C)=O)n2)c1 [Compound 45, 3-(6-{[2-(Acetyl-methyl-amino)-ethyl]-methyl-amino}-pyrazin-2-yloxy)-benzoic acid ethyl ester] | 1000 to 10000
COc1cccc(Oc2cncc(N(C)CCN(C)C(C)=O)n2)c1 [Compound 41, N-(2-{[6-(3-Methoxy-phenoxy)-pyrazin-2-yl]-methyl-amino}-ethyl)-N-methyl-acetamide] | 1000 to 10000
CN(CCN(C)c1cncc(Oc2ccc(F)cc2)n1)C(=O)CN [Compound 284, 2-Amino-N-(2-{[6-(4-fluoro-phenoxy)-pyrazin-2-yl]-methyl-amino}-ethyl)-N-methyl-acetamide] | 1000 to 10000
CC(=O)N(C)CCN(C)c1cncc(Oc2ccc(-c3ccnc(O)c3)cc2)n1 [Compound 204, N-[2-({6-[4-(2-Hydroxy-pyridin-4-yl)-phenoxy]-pyrazin-2-yl}-methyl-amino)-ethyl]-N-methyl-acetamide] | 200 to 1000
COc1ccc(Oc2cncc(N(C)CCCN(C)C(C)=O)n2)cc1 [Compound 80, N-(3-{[6-(4-Methoxy-phenoxy)-pyrazin-2-yl]-methyl-amino}-propyl)-N-methyl-acetamide] | 1000 to 10000
COc1ccc(Oc2cncc(N(C)CCN(C)C(=O)Cc3ccc(F)cc3)n2)cc1 [Compound 63, 2-(4-Fluoro-phenyl)-N-(2-{[6-(4-methoxy-phenoxy)-pyrazin-2-yl]-methyl-amino}-ethyl)-N-methyl-acetamide] | 1000 to 10000
CC(=O)c1ccc(Oc2cncc(N(C)CCN(C)C(C)=O)n2)cc1 [Compound 125, N-(2-{[6-(4-Acetyl-phenoxy)-pyrazin-2-yl]-methyl-amino}-ethyl)-N-methyl-acetamide] | 200 to 1000
CC(=O)N(C)CCN(C)c1cncc(Oc2ccc(-c3cccc(C(N)=O)n3)cc2)n1 [Compound 170, 6-[4-(6-{[2-(Acetyl-methyl-amino)-ethyl]-methyl-amino}-pyrazin-2-yloxy)-phenyl]-pyridine-2-carboxylic acid amide] | < 200
CS(=O)(=O)c1cncc(-c2ccc(Oc3cncc(NCCC(N)=O)n3)cc2)c1 [Compound 300, 3-{6-[4-(5-Methane-sulfonyl-pyridin-3-yl)-phenoxy]-pyrazin-2-ylamino}-propionamide] | ≥ 10000
CCN(CCN(C)c1cncc(Oc2cccc(F)c2)n1)C(C)=O [Compound 82, N-Ethyl-N-(2-{[6-(3-fluoro-phenoxy)-pyrazin-2-yl]-methyl-amino}-ethyl)-acetamide] | 200 to 1000
COc1ccc(Oc2cncc(N(C)CCCN(C)C(=O)C(F)(F)F)n2)cc1 [Compound 81, 2,2,2-Trifluoro-N-(3-{[6-(4-methoxy-phenoxy)-pyrazin-2-yl]-methyl-amino}-propyl)-N-methyl-acetamide] | 1000 to 10000
CC(=O)N(C)CCN(C)c1cncc(Oc2ccccc2F)n1 [Compound 51, N-(2-{[6-(2-Fluoro-phenoxy)-pyrazin-2-yl]-methyl-amino}-ethyl)-N-methyl-acetamide] | 200 to 1000
CC(=O)N(C)CCNc1cncc(Oc2ccc(-c3ccc(CO)nc3)cc2)n1 [Compound 254, N-(2-{6-[4-(6-Hydroxy-methyl-pyridin-3-yl)-phenoxy]-pyrazin-2-ylamino}-ethyl)-N-methyl-acetamide] | 200 to 1000
CC(=O)NCCN(C)c1cncc(Oc2ccc(F)cc2)n1 [Compound 58, N-(2-{[6-(4-Fluoro-phenoxy)-pyrazin-2-yl]-methyl-amino}-ethyl)-acetamide] | 1000 to 10000
CC(=O)N(C)CCN(C)c1cncc(Oc2ccc(-c3ccc(N)nc3)c(F)c2F)n1 [Compound 280, N-[2-({6-[4-(6-Amino-pyridin-3-yl)-2,3-difluoro-phenoxy]-pyrazin-2-yl}-methyl-amino)-ethyl]-N-methyl-acetamide] | < 200

Compound | IC50 [nM]
CC(=O)N1CCCC1CNc1cncc(Oc2ccc(F)cc2)n1 (stereo not drawn) [Compound 62, 1-(2-{[6-(4-Fluoro-phenoxy)-pyrazin-2-ylamino]-methyl}-pyrrolidin-1-yl)-ethanone] | 1000 to 10000
CC(=O)N(C)CCCc1cncc(Oc2ccc(-c3cccc(N4CCN(C)CC4)n3)cc2)c1 [Compound 316, N-Methyl-N-[3-(5-{4-[6-(4-methyl-piperazin-1-yl)-pyridin-2-yl]-phenoxy}-pyridin-3-yl)-propyl]-acetamide] | 1000 to 10000
CC(=O)N(C)CCN(C)c1cncc(Oc2cccc(N(C)C)c2)n1 [Compound 114, N-(2-{[6-(3-Dimethyl-amino-phenoxy)-pyrazin-2-yl]-methyl-amino}-ethyl)-N-methyl-acetamide] | 1000 to 10000
CC(=O)N(C)CCN(C)c1cncc(Oc2cccc(C)c2)n1 [Compound 44, N-Methyl-N-{2-[methyl-(6-m-tolyloxy-pyrazin-2-yl)-amino]-ethyl}-acetamide] | 1000 to 10000
CC(=O)N(C)CCN(C)c1cncc(Oc2ccc(-c3cnc4sc(=O)[nH]c4c3)cc2)n1 [Compound 186, N-Methyl-N-[2-(methyl-{6-[4-(2-oxo-1,2-dihydro-thiazolo[5,4-b]pyridin-6-yl)-phenoxy]-pyrazin-2-yl}-amino)-ethyl]-acetamide] | < 200
CC(=O)N(C)CCN(C)c1cncc(Oc2c(F)cc(Br)cc2F)n1 [Compound 113, N-(2-{[6-(4-Bromo-2,6-difluoro-phenoxy)-pyrazin-2-yl]-methyl-amino}-ethyl)-N-methyl-acetamide] | < 200
CSc1cccc(Oc2cncc(N(C)CCN(C)C(C)=O)n2)c1 [Compound 50, N-Methyl-N-(2-{methyl-[6-(3-methyl-sulfanyl-phenoxy)-pyrazin-2-yl]-amino}-ethyl)-acetamide] | 200 to 1000
CN(CCN(C)c1cncc(Oc2ccc(F)cc2)n1)C(=O)CO [Compound 286, N-(2-{[6-(4-Fluoro-phenoxy)-pyrazin-2-yl]-methyl-amino}-ethyl)-2-hydroxy-N-methyl-acetamide] | < 200
CC(=O)N(C)CCN(C)c1cncc(Oc2ccc(-c3cc(Br)cnc3N)cc2)n1 [Compound 252, N-[2-({6-[4-(2-Amino-5-bromo-pyridin-3-yl)-phenoxy]-pyrazin-2-yl}-methyl-amino)-ethyl]-N-methyl-acetamide] | 200 to 1000
CC(=O)N(CCSc1cncc(Oc2ccc(-c3ccc(C)cn3)cc2)n1)C(C)C [Compound 169, N-Isopropyl-N-(2-{6-[4-(5-methyl-pyridin-2-yl)-phenoxy]-pyrazin-2-ylsulfanyl}-ethyl)-acetamide] | < 200
CC(=O)N(C)CCNc1cncc(Oc2ccc(F)cc2)c1 [Compound 315, N-{2-[5-(4-Fluoro-phenoxy)-pyridin-3-ylamino]-ethyl}-N-methyl-acetamide] | ≥ 10000
CC(=O)N(C)CCN(C)c1cncc(Sc2ccc(Br)cc2)n1 [Compound 130, N-(2-{[6-(4-Bromo-phenyl-sulfanyl)-pyrazin-2-yl]-methyl-amino}-ethyl)-N-methyl-acetamide] | 1000 to 10000
CC(=O)N(C)CCN(C)c1cncc(Oc2ccc(Cl)cc2F)n1 [Compound 110, N-(2-{[6-(4-Chloro-2-fluoro-phenoxy)-pyrazin-2-yl]-methyl-amino}-ethyl)-N-methyl-acetamide] | 200 to 1000
CC(=O)N(C)CCN(C)c1cncc(O[C@H]2C[C@H]3CC[C@@H]2C3)n1 [Compound 208, N-(2-{[6-((1R,2S,4S)-Bicyclo[2.2.1]hept-2-yloxy)-pyrazin-2-yl]-methyl-amino}-ethyl)-N-methyl-acetamide] | 1000 to 10000
CC(=O)N(C)CCN(C)c1cncc(Oc2ccc(C(C)(C)C)cc2)n1 [Compound 85, N-(2-{[6-(4-tert-Butyl-phenoxy)-pyrazin-2-yl]-methyl-amino}-ethyl)-N-methyl-acetamide] | < 200
CC(=O)N(C)CCN(C)c1cncc(Oc2ccc(-c3cncnc3)cc2)n1 [Compound 209, N-Methyl-N-(2-{methyl-[6-(4-pyrimidin-5-yl-phenoxy)-pyrazin-2-yl]-amino}-ethyl)-acetamide] | < 200
CC(=O)N(C)CCN(C)c1cncc(Oc2ccc(C(=O)N3CCCC(c4cccn4C)=N3)cc2)n1 [Compound 126, N-Methyl-N-{2-[methyl-(6-{4-[3-(1-methyl-1H-pyrrol-2-yl)-5,6-dihydro-4H-pyridazine-1-carbonyl]-phenoxy}-pyrazin-2-yl)-amino]-ethyl} acetamide] | 1000 to 10000
CNCCN(C)c1cncc(Oc2ccc(-c3cc(C(F)(F)F)ccn3)cc2)n1 [Compound 120, N,N′-Dimethyl-N-{6-[4-(4-trifluoro-methyl-pyridin-2-yl)-phenoxy]-pyrazin-2-yl}-ethane-1,2-diamine] | 1000 to 10000
CC(=O)N(C)CCCc1cncc(Oc2ccc(-c3ccncc3)cc2F)n1 [Compound 270, N-{3-[6-(2-Fluoro-4-pyridin-4-yl-phenoxy)-pyrazin-2-yl]-propyl}-N-methyl-acetamide] | 200 to 1000
